Laboratory results as given in patent publication US20090209633A1, “Treatment of Pain With Resiniferatoxin and Related Analogs” (priority 2006, published 2009).
Entries after “also recorded” stand apart in the source; their conditions may differ. Read-outs that look alike come from different tables or passages of the source.

Legend:
TRPV1 [1] = target: TRPV1 (Rattus norvegicus, UniProt O35433); details: Caterina et al. 1997, cited from earlier work
TRPV1 [2] = type: in vivo
Source text: Low concentrations of RTX (0.19 micrograms/kg) were introduced intrathecally.
FIG. 14 provides photographs of TRPV1 levels in paw skin with and without intrathecal RTX administration.

rat TRPV1 = target: T1, rat TRPV1 (Rattus norvegicus, UniProt O35433); experiment: Whole-cell currents in Xenopus laevis oocytes expressing TRPV1 (double-electrode voltage clamp); type: cell-based; details: capsaicin 300 nM; for activation time (10-90% of the rising phase): holding −60 mV, protons pH 5.5, RTX 10 nM; for reversal potential of agonist-induced whole-cell current: ramp −80 to +80 mV in 1 s; for reversal/deactivation of current on agonist removal: −60 mV, pH 5.5, NADA 10 μM, washout >15 min for RTX
T1 construct: expressed in transfected cells; host or cells: Xenopus laevis oocytes injected with TRPV1 cRNA
Method: Rat TRPV1 dcRNA. Cloned rat TRPV1 was obtained from the Julius Lab at the University of California San Francisco. TRPV1 cRNA was obtained using standard techniques known to those of skill in the art.
Electrophysiology. Whole-cell and single-channel currents were recorded from rat DRG neurons in culture and from Xenopus laevis oocytes injected with rat TRPV1 cRNA. Animals were cared for according to the standards of the National Institutes of Health (NIH). All animal use protocols were approved by Southern Illinois University School of Medicine Animal Care Committee.
Oocytes were obtained by an abdominal incision after anaesthetizing the frog by immersion in a 0.05% solution of 3-aminobenzoic acid ethyl ester (MS222). Animals were killed by a subcutaneous injection of a 2% solution of MS222 according to NIH guidelines. One day after separating the oocytes from the follicular layer, 50-70 nl TRPV1 cRNA was injected using a Drummond Nanoject (Drummond Scientific Co., Broomall, Pa., USA). Oocytes were used for recording from 3 days after the injection. Double-electrode voltage clamp was performed using a Warner amplifier (Warner Instruments, Hamden, Conn., USA). Data were digitized and stored on videotape or directly stored on the computer using a LabView interface (National Instruments, Austin, Tex., USA). Experiments were performed at 21-23° C. Oocytes were placed in a Perspex chamber superfused (5-10 ml min^−1) with Ca^2+-free Ringer solution containing (mM): NaCl 100, KCl 2.5 and Hepes 5; pH adjusted to 7.35 with NaOH. Current-voltage relationships were measured using 1-s voltage ramps from −80 to +80 mV.
This example tests the activation of whole-cell currents in oocytes by RTX. Whole-cell currents were recorded from oocytes heterologously expressing TRPV1. […] Agonist-induced currents are shown after subtracting the leak current in the absence of the agonist. […] In order to quantify this, we calculated the ratio of outward and inward currents. […] PKC activation increases sensitivity as well as TRPV1 translocation. […] (Szallasi et al. 1990b; Caterina et al. 1997; Marshall et al. 2003.)

vanilloid receptors [3] = target: T2, vanilloid receptors (Rattus norvegicus, UniProt O35433); details: Acs et al. 1995; cited from earlier work
[4] = test system: TRPV1-containing central terminals; experiment: Paw withdrawal latency and nocifensive behavior after intrathecal RTX administration; type: in vivo
Source text: FIG. 14 provides photographs of TRPV1 levels in paw skin with and without intrathecal RTX administration. […] However, because PWL is a test for acute pain sensation, it is inappropriate for studying TRPV1 involvement, because TRPV1 mediates inflammatory pain.

vanilloid receptors [5] = target: T2, vanilloid receptors; details: Acs et al. 1995; read-out: Kd, ability to induce Ca2+ uptake; cited from earlier work
native TRPV1 = target: T3, native TRPV1 (Rattus norvegicus, UniProt O35433); details: capsaicin 1 μM, cell-attached, Premkumar et al. 2002, cited from earlier work
T3 construct: RTX-induced membrane currents on native TRPV1 in embryonic DRG neurons grown in culture; endogenous in cells; host or cells: primary rat E18 DRG neurons

[6] = RTX 0.19 micrograms/kg intrathecal

T1 sequence (O35433 whole entry): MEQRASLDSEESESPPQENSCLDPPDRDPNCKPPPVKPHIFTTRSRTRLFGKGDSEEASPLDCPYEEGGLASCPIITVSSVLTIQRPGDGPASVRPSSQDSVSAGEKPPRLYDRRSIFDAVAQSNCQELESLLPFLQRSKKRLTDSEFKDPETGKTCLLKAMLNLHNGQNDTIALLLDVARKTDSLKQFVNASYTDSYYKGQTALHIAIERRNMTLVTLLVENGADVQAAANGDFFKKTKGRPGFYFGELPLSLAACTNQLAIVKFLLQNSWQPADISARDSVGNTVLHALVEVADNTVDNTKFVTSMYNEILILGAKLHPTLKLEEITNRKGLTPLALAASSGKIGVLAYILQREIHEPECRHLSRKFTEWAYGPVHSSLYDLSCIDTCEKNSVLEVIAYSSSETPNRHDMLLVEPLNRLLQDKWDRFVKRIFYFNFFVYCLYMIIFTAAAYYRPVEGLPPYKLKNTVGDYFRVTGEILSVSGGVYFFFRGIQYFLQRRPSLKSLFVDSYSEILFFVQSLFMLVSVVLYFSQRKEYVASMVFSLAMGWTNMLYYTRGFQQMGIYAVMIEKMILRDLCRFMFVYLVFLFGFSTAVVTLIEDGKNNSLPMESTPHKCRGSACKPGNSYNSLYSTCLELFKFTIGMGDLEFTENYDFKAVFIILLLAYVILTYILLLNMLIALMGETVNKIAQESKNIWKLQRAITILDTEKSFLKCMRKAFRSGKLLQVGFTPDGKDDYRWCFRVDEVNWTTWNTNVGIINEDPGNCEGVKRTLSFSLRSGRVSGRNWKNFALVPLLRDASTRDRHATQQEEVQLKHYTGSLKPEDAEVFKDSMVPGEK
T3 sequence (O35433 whole entry): as above
T2 sequence (O35433 whole entry): as above
Chain of TRPV1 (Rattus norvegicus, UniProt O35433) (O35433 whole entry): as above

Structure (SMILES): C=C(C)[C@]12C[C@@H](C)[C@@]34O[C@](Cc5ccccc5)(O[C@@H]1[C@@H]3C=C(COC(=O)Cc1ccc(O)c(OC)c1)C[C@]1(O)C(=O)C(C)=C[C@@H]41)O2 [RTX, resiniferatoxin]
- fold more potent than capsaicin to activate TRPV1 current (TRPV1 [1]): 20 fold
- EC50 (TRPV1 [1]; read-out: EC50 to activate TRPV1 current): 0.039 µM
- TRPV1 levels in DRG (TRPV1 [2]; [6]): maintenance; also recorded: remained constant
- TRPV1 levels in spinal cord dorsal horn (DH) (TRPV1 [2]; [6]): reduction; also recorded: significantly reduced
- effect on cell body or peripheral terminals (paw skin TRPV1) (TRPV1 [2]; RTX intrathecal): without affecting the cell body or peripheral terminals
- activation time (10-90% of the rising phase) (rat TRPV1): 61.4±4.4 s
- reversal potential of agonist-induced whole-cell current (rat TRPV1; RTX 10 nM): −10.4±0.53 mV
- ratio of outward and inward currents (rectification) (rat TRPV1; ramp −80 to +80 mV, RTX 10 nM): 2.35±0.97
- reversal/deactivation of current on agonist removal (rat TRPV1; RTX 10 nM): did not deactivate even after a prolonged washout
- fold more potent for binding as compared to Ca2+ uptake (vanilloid receptors [3]): 25 fold
- nocifensive behavior to intraplantar injection of capsaicin [4]: dramatic decrease; also recorded: significantly reduced
- paw withdrawal latency (PWL) to radiant heat [4]: no change; also recorded: not affected
- duration of guarding ([4]; intraplantar capsaicin): decreased significantly
- number of guarding ([4]; intraplantar capsaicin): decreased significantly
- Ca2+ uptake potency (half-maximal concentration) (vanilloid receptors [5]): 0.001 µM

Structure (SMILES): COc1cc(CNC(=O)CCCC/C=C/C(C)C)ccc1O [capsaicin]
- maximal Po (native TRPV1; +60 mV): 0.4±0.08
- maximal Po (native TRPV1; −60 mV): 0.8±0.04
- activation time (10-90% of the rising phase) (rat TRPV1): 23.9±1.5 s
- reversal potential of agonist-induced whole-cell current (rat TRPV1; RTX 10 nM): −12.3±0.42 mV
- reversal/deactivation of current on agonist removal (rat TRPV1; RTX 10 nM): could be reversed readily
